In patent US20060069132A1, “Azolecarboxamide herbicides” (priority 2004, published 2006):

Tests used:
[1] = tested on: barnyardgrass; experiment: Test B pre-/postemergence herbicide test; format: in vivo, Echinochloa crus-galli
How it was run: (§1)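 Pre: seeds sown, then sprayed. Post: 1–4-leaf plants (2–18 cm) sprayed at the same time. Paddy: flooded, treated at 2-leaf stage. Formulation: non-phytotoxic solvent with surfactant. Greenhouse 13–15 days; visual 0–100 score relative to controls.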

[2] = tested on: velvetleaf; experiment: Test B pre-/postemergence herbicide test; format: in vivo, Abutilon theophrasti
How it was run: (§2)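 Greenhouse pot assay with simultaneous preemergence (treated seed) and postemergence (2–18 cm seedlings) applications of surfactant-containing, non-phytotoxic solvent formulations. Response scored visually 13–15 days later on a 0–100 scale, 100 meaning complete control.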

[3] = tested on: cocklebur; experiment: Test B pre-/postemergence herbicide test; format: in vivo, Xanthium strumarium
How it was run: as §1

[4] = tested on: small flower umbrella sedge; experiment: Test B flooded paddy test; format: in vivo, Cyperus difformis; conditions: 1000 g ai/ha, scale 0 to 100 (0 no effect, 100 complete control)
How it was run: (§3)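 Read-out: visual comparison with controls, scored 0 to 100, where 100 means complete control and 0 no effect. Formulated chemicals were applied postemergence to plants 2–18 cm tall (1- to 4-leaf), or to flooded-paddy plants at the 2-leaf stage, then held 13 to 15 days under glass.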

[5] = tested on: rice; experiment: Test B flooded paddy test; format: in vivo, Oryza sativa; conditions: 1000 g ai/ha, scale 0 to 100 (0 no effect, 100 complete control)
How it was run: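 Greenhouse test; postemergence application to plants at 1–4 leaves (2–18 cm); paddy species at 2 leaves; evaluated visually vs controls at 13–15 days; scale 0–100 (100 = complete control).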

[6] = tested on: wild oat; experiment: Test B postemergence herbicide test; format: in vivo, Avena fatua; conditions: scale 0 (no effect) to 100 (complete control); for Plant response rating, Oat, Wild: visual rating after 13 to 15 days
How it was run: as §3

[7] = tested on: corn; experiment: Test B pre-/postemergence herbicide test; format: in vivo, Zea mays
How it was run: as §2

[8] = tested on: lambsquarters; experiment: Test B pre-/postemergence herbicide test; format: in vivo, Chenopodium album
How it was run: as §2

[9] = tested on: giant foxtail; experiment: Test B pre-/postemergence herbicide test; format: in vivo, Setaria faberi
How it was run: as §2

[10] = tested on: ducksalad; experiment: Test B flooded paddy test; format: in vivo, Heteranthera limosa; conditions: 1000 g ai/ha, scale 0 to 100 (0 no effect, 100 complete control)
How it was run: as §3

[11] = tested on: barnyardgrass; experiment: Test B flooded paddy test; format: in vivo, Echinochloa crus-galli; conditions: 1000 g ai/ha, scale 0 to 100 (0 no effect, 100 complete control)
How it was run: as §3

[12] = tested on: wheat; experiment: Test B postemergence herbicide test; format: in vivo, Triticum aestivum; parameters: key to Wheat plant response rating: 0 = no effect, 100 = complete control; conditions: for Plant response rating, Wheat: visual rating after 13 to 15 days
How it was run: as §3

[13] = tested on: pigweed; experiment: Test B pre-/postemergence herbicide test; format: in vivo, Amaranthus retroflexus
How it was run: as §2

[14] = tested on: blackgrass; experiment: Test B postemergence herbicide test; format: in vivo, Alopecurus myosuroides; conditions: for Plant response rating, Blackgrass: visual rating after 13 to 15 days
How it was run: as §3

[15] = tested on: morningglory; experiment: Test B pre-/postemergence herbicide test; format: in vivo, Ipomoea coccinea
How it was run: as §1

[16] = Postemergence, 500 g ai/ha, visual rating after 13 to 15 days, scale 0 (no effect) to 100 (complete control)
[17] = Preemergence, 500 g ai/ha, scale 0 to 100
[18] = postemergence, 125 g ai/ha, visual rating, scale 0 (no effect) to 100 (complete control)
[19] = preemergence, 125 g ai/ha, 0 to 100 scale, 0 is no effect, 100 is complete control
[20] = Postemergence, 500 g ai/ha, scale 0 (no effect) to 100 (complete control)
[21] = 125 g ai/ha, 0 is no effect, 100 is complete control, preemergence
[22] = 125 g ai/ha, visual rating, scale 0 (no effect) to 100 (complete control), postemergence
[23] = postemergence, 500 g ai/ha, scale 0 to 100, 0 is no effect, 100 is complete control
[24] = Postemergence, 125 g ai/ha, scale 0 (no effect) to 100 (complete control)

## CCn1nc(C(C)(C)C)cc1C(=O)Nc1cccc(C(=O)NCC2CC2)c1 [Compound 62]
[1]; [16]
  Plant response rating, Barnyardgrass: 50
[1]; [17]
  Barnyardgrass plant response rating: 80
[1]; [18]
  Barnyardgrass plant response rating: 20
[1]; [19]
  Plant response rating, Barnyardgrass: 20
[2]; [16]
  Plant response rating, Velvetleaf: 70
[2]; [18]
  Velvetleaf plant response rating: 60
[2]; [19]
  Plant response rating, Velvetleaf: 80
[3]; [16]
  Plant response rating, Cocklebur: 100
[3]; [17]
  Cocklebur plant response rating: 10
[3]; [18]
  Cocklebur plant response rating: 70
[3]; [19]
  Plant response rating, Cocklebur: 0
[4]; visual rating, 13 to 15 days
  Sedge, Umbrella plant response rating: 80
[5]; visual rating, 13 to 15 days
  Rice plant response rating: 30
[6]; Postemergence, 500 g ai/ha
  Plant response rating, Oat, Wild: 30
[6]; postemergence, 125 g ai/ha, visual rating
  Oat, Wild plant response rating: 10
[7]; [16]
  Plant response rating, Corn: 20
[7]; [17]
  Corn plant response rating: 10
[7]; [18]
  Corn plant response rating: 10
[7]; [19]
  Plant response rating, Corn: 0
[8]; [16]
  Plant response rating, Lambsquarters: 90
[8]; [18]
  Lambsquarters plant response rating: 80
[8]; [19]
  Plant response rating, Lambsquarters: 100
[9]; [16]
  Plant response rating, Foxtail, Giant: 30
[9]; [17]
  Foxtail, Giant plant response rating: 90
[9]; [18]
  Foxtail, Giant plant response rating: 10
[9]; [19]
  Plant response rating, Foxtail, Giant: 70
[10]; visual rating, 13 to 15 days
  Ducksalad plant response rating: 80
[11]; visual rating, 13 to 15 days
  Barnyardgrass plant response rating: 70
[12]; [20]
  Plant response rating, Wheat: 10
[12]; [18]
  Wheat plant response rating: 0
[13]; [16]
  Plant response rating, Pigweed: 90
[13]; [18]
  Pigweed plant response rating: 80
[13]; [19]
  Plant response rating, Pigweed: 100
[14]; [20]
  Plant response rating, Blackgrass: 70
[14]; [18]
  Blackgrass plant response rating: 10
[15]; [16]
  Plant response rating, Morningglory: 60
[15]; [18]
  Morningglory plant response rating: 20
[15]; [19]
  Plant response rating, Morningglory: 10

## CCc1nn(C(C)C)nc1C(=O)Nc1cccc(C(=O)N2CCCCC2)c1 [Compound 385]
[1]; [21]
  Plant response rating (0 to 100 scale), Barnyardgrass: 80
[1]; [22]
  Barnyardgrass plant response rating: 0
[1]; [23]
  Barnyardgrass plant response rating: 10
[2]; [21]
  Plant response rating (0 to 100 scale), Velvetleaf: 60
[2]; [22]
  Velvetleaf plant response rating: 20
[2]; [20]
  Velvetleaf plant response rating: 20
[3]; [21]
  Plant response rating (0 to 100 scale), Cocklebur: 0
[3]; [22]
  Cocklebur plant response rating: 20
[3]; [23]
  Cocklebur plant response rating: 50
[4]
  Sedge, Umbrella plant response rating: 80
[5]
  Rice plant response rating: 80
[6]; 125 g ai/ha, visual rating, postemergence
  Oat, Wild plant response rating: 0
[6]; Postemergence, 500 g ai/ha
  Oat, Wild plant response rating: 20
[7]; [21]
  Plant response rating (0 to 100 scale), Corn: 30
[7]; [22]
  Corn plant response rating: 10
[7]; [23]
  Corn plant response rating: 10
[8]; [21]
  Plant response rating (0 to 100 scale), Lambsquarters: 90
[8]; [22]
  Lambsquarters plant response rating: 50
[8]; [20]
  Lambsquarters plant response rating: 60
[9]; [21]
  Plant response rating (0 to 100 scale), Foxtail, Giant: 30
[9]; [22]
  Foxtail, Giant plant response rating: 10
[9]; [23]
  Foxtail, Giant plant response rating: 20
[10]
  Ducksalad plant response rating: 80
[11]
  Barnyardgrass plant response rating: 80
[12]; [22]
  Wheat plant response rating: 0
[12]; 500 g ai/ha, scale 0 to 100, 0 no effect, 100 complete control, preemergence
  Wheat plant response rating: 80
[12]; [20]
  Wheat plant response rating: 10
[13]; [21]
  Plant response rating (0 to 100 scale), Pigweed: 70
[13]; [22]
  Pigweed plant response rating: 50
[13]; [20]
  Pigweed plant response rating: 60
[14]; [22]
  Blackgrass plant response rating: 10
[14]; [23]
  Blackgrass plant response rating: 30
[15]; [21]
  Plant response rating (0 to 100 scale), Morningglory: 20
[15]; [22]
  Morningglory plant response rating: 30
[15]; [20]
  Morningglory plant response rating: 80

## CCNC(=O)c1cccc(NC(=O)c2cc(C(C)(C)C)nn2CCF)c1 [Compound 35]
[1]; [24]
  Barnyardgrass plant response rating: 10
[1]; [16]
  Plant response rating, Barnyardgrass: 20
[1]; [17]
  Barnyardgrass plant response rating: 100
[2]; [16]
  Plant response rating, Velvetleaf: 50
[2]; [17]
  Velvetleaf plant response rating: 60
[2]; [19]
  Plant response rating, Velvetleaf: 50
[3]; [24]
  Cocklebur plant response rating: 50
[3]; [16]
  Plant response rating, Cocklebur: 100
[3]; [17]
  Cocklebur plant response rating: 30
[4]; visual rating, 13 to 15 days
  Sedge, Umbrella plant response rating: 90
[5]; visual rating, 13 to 15 days
  Rice plant response rating: 60
[6]; Postemergence, 125 g ai/ha
  Oat, Wild plant response rating: 0
[6]; Postemergence, 500 g ai/ha
  Plant response rating, Oat, Wild: 10
[7]; [17]
  Corn plant response rating: 40
[8]; [24]
  Lambsquarters plant response rating: 80
[8]; [16]
  Plant response rating, Lambsquarters: 90
[8]; [17]
  Lambsquarters plant response rating: 100
[8]; [19]
  Plant response rating, Lambsquarters: 90
[9]; [24]
  Foxtail, Giant plant response rating: 20
[9]; [16]
  Plant response rating, Foxtail, Giant: 20
[9]; [17]
  Foxtail, Giant plant response rating: 100
[9]; [19]
  Plant response rating, Foxtail, Giant: 80
[10]; visual rating, 13 to 15 days
  Ducksalad plant response rating: 80
[11]; visual rating, 13 to 15 days
  Barnyardgrass plant response rating: 90
[12]; [20]
  Plant response rating, Wheat: 20
[13]; [16]
  Plant response rating, Pigweed: 100
[13]; [17]
  Pigweed plant response rating: 100
[13]; [19]
  Plant response rating, Pigweed: 100
[14]; [24]
  Blackgrass plant response rating: 20
[14]; [20]
  Plant response rating, Blackgrass: 30
[15]; [17]
  Morningglory plant response rating: 10
[15]; [19]
  Plant response rating, Morningglory: 10
